Patent US4299970A, “Oxy-alkylamino carboxylic esters” (Beecham Group Limited, priority 1974, dated 1981)
In brackets after ≈: the same amount, converted by molar mass.

Tests used:
[1] = test system: femoral artery of the hind limb; assay: vasodilator activity in femoral artery of the hind limb (vascular resistance); format: in vivo, beagle dog; details: dose range of 0.01-1 mg/kg, intra-arterially
Experimental: (§1) b. The vasodilator activity of the compounds was determined in the femoral artery of the hind limb of the anaesthetised beagle dog. The method used was similar to that described by J. Nakano and J. R. McCurdy, (1967), J. Pharmac. Exp. Ther., 156, 538.
The compounds were administered into the iliac artery and the effects on both flow and pressure in the hind limb were recorded. Changes in vascular resistance (R) were calculated from the following expression: [formula]

[2] = test system: total peripheral resistance; assay: total peripheral resistance, intravenous; format: in vivo, beagle dog; details: dose range of 0.01-10 mg/kg, intra-venously
Experimental: as §1
In other experiments the compounds were administered into the left femoral vein and the right femoral arterial pressure and cardiac output were monitored. From these experiments, total peripheral resistance (TPR) was calculated from the expression: [formula]

blood pressure = assay: anti-hypertensive activity in the renal hypertensive rat; format: in vivo; details: 100 mg/kg, orally
Experimental: c. The anti-hypertensive activity of the compounds was determined in the renal hypertensive rat. Rats were made hypertensive by nephrectomy and treatment with deoxycorticosterone acetate/NaCl. The compounds were administered orally to a group of 3 hypertensive rats at a dose level of 100 mg/kg and their blood pressure was monitored after 4, 6 and 24 hours.

[3] = test system: guinea pig platelet aggregation induced by ADP; assay: inhibition of guinea pig platelet aggregation induced in vitro by ADP; format: cell-based; details: Cavia porcellus, ADP 5.45×10^-7 M, platelet rich plasma, 37° C.
Experimental: a. The compounds were examined for their ability to inhibit guinea pig platelet aggregation induced, in vitro, by 5.45×10^-7 M adenosine diphosphate (ADP).
The method consisted of diluting the compound immediately before use from a 10 mg/ml solution in ethanol to a 1 mg/ml solution with saline and then adding the appropriate volume to 0.5 ml of platelet rich plasma. The mixture was stirred at 37° C. for 1 minute before 25 μl of an ADP solution was added to give a final ADP concentration of 5.45×10^-7 M. The aggregation response was then recorded relative to the control.

[4] = test system: human platelet aggregation induced by adenosine diphosphate (ADP); assay: inhibition of human platelet aggregation induced in vitro by ADP; format: cell-based; details: 10^-4 M, platelet rich plasma, 37° C.
Experimental: (§2) b. The compounds were examined for their ability to inhibit human platelet aggregation induced, in vitro, either by adenosine diphosphate (ADP) or collagen. The compounds were added in saline or dimethylformamide to platelet rich plasma at 37° C. to give a final concentration of 10^-4 M. After 3 minutes the platelets were challenged with ADP or collagen. The aggregation response was then recorded relative to the control.

[5] = test system: human platelet aggregation induced by collagen; assay: inhibition of human platelet aggregation induced in vitro by collagen; format: cell-based
Experimental: as §2

[6] = test system: gerbil colon; contraction to prostaglandin F2α; assay: prostaglandin antagonist activity on the isolated perfused gerbil colon (contraction to prostaglandin F2α); details: Meriones unguiculatus; reduction of contraction to prostaglandin F2α; one minute pre-contact time
Experimental: The compounds were tested for prostaglandin-like and for prostaglandin antagonist activity on the isolated perfused gerbil colon preparation (smooth muscle). This has been shown by J. R. Weeks, J. R. Schultz and W. E. Brown, (1968), J. App. Physiol, 25, 783, to have greater precision and sensitivity than other preparations. A 15 mm portion of the descending colon is suspended in an organ bath and perfused with De Jalon's saline at 32° C. Compounds were given in a three minute cycle with a 45 second contact time and a 15 second washout time. Antagonist compounds were given with a one minute pre-contact time.
Antagonist activity was determined by measuring the percentage reduction of the contraction to two standard doses of prostaglandin F2α which gave responses between 20% and 80% of maximum response.

IC50 [3]: 44 µM
IC50 ([5]; Platelet, read-out: IC50 against collagen-induced aggregation): 2.8 µM
IC50 [6]: 3.4 µg/mL (≈ 8.55 µM)
Compound: CCCCCC(O)CCN1C(=O)CCC(=O)C1CCCCCCC(=O)OCC (stereo not drawn) [Compound 73, 2-(6'-Ethoxycarbonyl-n-hexyl)-1-(3"-hydroxy-n-octyl)-piperidin-3,6-dione]
vascular resistance [1]: decreased vascular resistance
total peripheral resistance (TPR) [2]: decreased total peripheral resistance
fall in blood pressure after 4 hours (blood pressure; 4 hours): 16%
blood pressure after 6 hours (blood pressure; 6 hours): risen to normal hypertensive levels
inhibition at 100 µM [4]: 87%
inhibition at 100 µM ([5]; 10^-4 M, collagen, platelet rich plasma, 37° C.): 100%
